{"source": "patent US8796292B2", "about": "“Selective antibacterials for clostridium difficile infections” (GLSynthesis Inc., priority 2009, dated 2014)", "key": {"Bi. brevi": {"tested_on": "Bi. brevi", "assay": "agar dilution MIC assay of anaerobic bacteria", "type": "cell-based, Bifidobacterium brevi", "conditions": "Bifidobacterium breve; Bi. Breve, Strain no. 3967 (ATCC strain), Table 3", "experimental": "(§1) Each compound was assayed against a panel of anaerobic bacteria in culture, consisting of Gram-positive organisms, such as Lactobacilli, Bifidobacteria, Clostridium spp., and Gram-negative bacteria, such as […] fragilis spp., according to guidelines of the Clinical and Laboratory Standards Institute (CLSI document M11-A7, CLSI, Wayne, Pa., 2007). […] One tenth mL of diluted bacteria containing 500-1000 colony-forming units (CFU) was plated and spread, and the plates incubated at 37° C. for 24-48 hours. MIC (minimum inhibitory concentration) is equivalent to the lowest concentration in μg/ml at which growth, i.e., colony formation, is not observed. […] Bacteria were assayed using a reference agar dilution method. Drug dilutions and drug-supplemented agar plates were prepared manually. The test organisms were maintained frozen at −80° C. The isolates were sub-cultured on Supplemented Brucella Agar (SBA) plates in a Bactron II anaerobic chamber and incubated for 48 hours at 35-36° C. in the Bactron II anaerobe chamber. Following inoculation, the drug-supplemented plates were incubated at 35° C. for 48 hours in the anaerobic environment (5% hydrogen, 5% carbon dioxide, 90% nitrogen) of the Bactron II. The MIC in μg/ml was read per Clinical and Laboratory Standards Institute guidelines."}, "E. lentum": {"tested_on": "E. lentum", "assay": "agar dilution MIC assay of anaerobic bacteria", "type": "cell-based, Eubacterium lentum", "conditions": "Eggerthella lenta; Eu. Lentum, Strain no. 1274 (ATCC strain), Table 3; read-out: MIC", "experimental": "as §1"}, "Bi. longum": {"tested_on": "Bi. longum", "assay": "agar dilution MIC assay of anaerobic bacteria", "type": "cell-based, Bifidobacterium longum", "conditions": "Bifidobacterium longum; Bi. Longum, Strain no. 3968 (ATCC strain), Table 3; read-out: MIC", "experimental": "as §1"}, "C. difficile": {"tested_on": "C. difficile", "assay": "agar dilution MIC assay of anaerobic bacteria", "type": "cell-based, Clostridium difficile", "conditions": "for MIC: Clostridioides difficile, read-out: MIC", "experimental": "as §1"}, "L. casei": {"tested_on": "L. casei", "assay": "agar dilution MIC assay of anaerobic bacteria", "type": "cell-based, Lactobacillus casei", "conditions": "Lacticaseibacillus casei, Strain no. 1722 (ATCC strain), Table 3", "experimental": "as §1"}, "Ba. fragilis": {"tested_on": "Ba. fragilis", "assay": "agar dilution MIC assay of anaerobic bacteria", "type": "cell-based", "conditions": "Bacteroides fragilis, B. fragilis", "experimental": "as §1"}, "L. acidophilus": {"tested_on": "L. acidophilus", "assay": "agar dilution MIC assay of anaerobic bacteria", "type": "cell-based", "conditions": "Lactobacillus acidophilus, Strain no. 0681, Table 3", "experimental": "as §1"}, "C. diff. (ATCC43255)": {"tested_on": "C. diff. (ATCC43255)", "assay": "clindamycin-induced C. diff. infection model in Syrian golden hamsters", "type": "in vivo", "conditions": "for % Survivors at 120 hr / Survivors at 24 hr / Survivors at 48 hr / Survivors at 66 hr / Survivors at 72 hr / Survivors at 96 hr: n = 6 hamsters", "source_text": "Compound 359E was given orally as a suspension in 1% carboxymethylcellulose to Syrian Golden hamsters, pretreated subcutaneously with clindamycin and infected orally with C. diff. (ATCC43255) as described in Table 5."}}, "note": "Like-named read-outs stand apart in the source and are kept apart here."}
{"compound": "O=c1[nH]c(NCc2ccc(Cl)c(Cl)c2)nc2ncn(CCCCCN3CCOCC3)c12", "note": "[Compound 359E, 7-[5-(N-morpholinyl)pentyl]-2-(3,4-dichlorobenzylamino)-6-oxopurine]", "values": [{"measurement": "MIC", "setting": "Bi. brevi", "result": "> 32", "unit": "µg/mL"}, {"measurement": "MIC", "setting": "E. lentum", "result": "> 32", "unit": "µg/mL"}, {"measurement": "MIC", "setting": "Bi. longum", "result": "> 32", "unit": "µg/mL"}, {"measurement": "MIC", "setting": "C. difficile; C. diff. Strain no. 18285, Table 4", "result": 8, "unit": "µg/mL"}, {"measurement": "MIC", "setting": "C. difficile; C. diff. Strain no. 19265, Table 4", "result": 8, "unit": "µg/mL"}, {"measurement": "MIC", "setting": "C. difficile; C. diff. Strain no. 19273, Table 4", "result": 8, "unit": "µg/mL"}, {"measurement": "MIC", "setting": "C. difficile; C. diff. Strain no. 19281, Table 4", "result": 8, "unit": "µg/mL"}, {"measurement": "MIC", "setting": "C. difficile; C. diff. Strain no. 19291, Table 4", "result": 4, "unit": "µg/mL"}, {"measurement": "MIC", "setting": "C. difficile; C. diff. Strain no. 19369, Table 4", "result": 8, "unit": "µg/mL"}, {"measurement": "MIC", "setting": "C. difficile; C. diff. Strain no. 19382, Table 4", "result": 2, "unit": "µg/mL"}, {"measurement": "MIC", "setting": "C. difficile; C. diff. Strain no. 19540, Table 4", "result": 4, "unit": "µg/mL"}, {"measurement": "MIC", "setting": "C. difficile; C. diff. Strain no. 19580, Table 4", "result": 2, "unit": "µg/mL"}, {"measurement": "MIC", "setting": "C. difficile; C. diff. Strain no. 19680, Table 4", "result": 8, "unit": "µg/mL"}, {"measurement": "MIC", "setting": "C. difficile; C. diff. Strain no. 19681, Table 4", "result": 8, "unit": "µg/mL"}, {"measurement": "MIC", "setting": "C. difficile; C. diff. Strain no. 19683, Table 4", "result": 8, "unit": "µg/mL"}, {"measurement": "MIC", "setting": "C. difficile; C. diff. Strain no. 19687, Table 4", "result": 8, "unit": "µg/mL"}, {"measurement": "MIC", "setting": "C. difficile; C. diff. Strain no. 20066, Table 4", "result": 8, "unit": "µg/mL"}, {"measurement": "MIC", "setting": "C. difficile; C. diff. Strain no. 20152, Table 4", "result": 8, "unit": "µg/mL"}, {"measurement": "MIC", "setting": "C. difficile; C. diff. Strain no. 20307, Table 4", "result": 8, "unit": "µg/mL"}, {"measurement": "MIC", "setting": "C. difficile; C. diff. Strain no. 20494, Table 4", "result": 8, "unit": "µg/mL"}, {"measurement": "MIC", "setting": "C. difficile; C. diff. Strain no. 20680, Table 4", "result": 8, "unit": "µg/mL"}, {"measurement": "MIC", "setting": "C. difficile; C. diff. Strain no. 20934, Table 4", "result": 2, "unit": "µg/mL"}, {"measurement": "MIC", "setting": "C. difficile; C. diff. Strain no. 21099, Table 4", "result": 8, "unit": "µg/mL"}, {"measurement": "MIC", "setting": "C. difficile; C. diff., Micromyx Number 3579, Table 2", "result": 2, "unit": "µg/mL"}, {"measurement": "MIC", "setting": "C. difficile; C. diff., Micromyx Number 3580, Table 2", "result": 2, "unit": "µg/mL"}, {"measurement": "MIC", "setting": "C. difficile; C. diff., Micromyx Number 3581, Table 2", "result": 2, "unit": "µg/mL"}, {"measurement": "MIC", "setting": "C. difficile; C. diff., Micromyx Number 3582 (ATCC strain), Table 2", "result": 2, "unit": "µg/mL"}, {"measurement": "MIC", "setting": "C. difficile; C. diff., Strain no. 3580, Table 3", "result": 4, "unit": "µg/mL"}, {"measurement": "MIC", "setting": "C. difficile; C. diff., Strain no. 3581, Table 3", "result": 2, "unit": "µg/mL"}, {"measurement": "MIC", "setting": "C. difficile; C. diff., Strain no. 3582, Table 3", "result": 8, "unit": "µg/mL"}, {"measurement": "MIC", "setting": "C. difficile; C. diff., Strain no. 3584, Table 3", "result": 2, "unit": "µg/mL"}, {"measurement": "MIC", "setting": "C. difficile; C. diff., Strain no. 3585, Table 3", "result": 4, "unit": "µg/mL"}, {"measurement": "MIC", "setting": "C. difficile; C. diff., Strain no. 3586, Table 3", "result": 2, "unit": "µg/mL"}, {"measurement": "MIC", "setting": "C. difficile; C. diff., Strain no. 3587, Table 3", "result": 4, "unit": "µg/mL"}, {"measurement": "MIC", "setting": "C. difficile; C. diff., Strain no. 3588, Table 3", "result": 0.5, "unit": "µg/mL"}, {"measurement": "MIC", "setting": "C. difficile; C. diff., Strain no. 3589, Table 3", "result": 4, "unit": "µg/mL"}, {"measurement": "MIC", "setting": "C. difficile; C. diff., Strain no. 4381 (ATCC strain), Table 3", "result": 2, "unit": "µg/mL"}, {"measurement": "potency and selectivity against C. diff. versus other Gram-positive anaerobes (in words)", "setting": "C. difficile; summary of MIC panels, Tables 1 and 3", "result": "best profile"}, {"measurement": "MIC", "setting": "L. casei", "result": 16, "unit": "µg/mL"}, {"measurement": "MIC", "setting": "Ba. fragilis; Micromyx Number 0123 (ATCC strain), Table 2", "result": "> 32", "unit": "µg/mL"}, {"measurement": "MIC", "setting": "Ba. fragilis; Strain no. 0123 (ATCC strain), Gram-negative (control), Table 3", "result": "> 32", "unit": "µg/mL"}, {"measurement": "MIC", "setting": "L. acidophilus", "result": 2, "unit": "µg/mL"}, {"measurement": "% Survivors at 120 hr", "setting": "C. diff. (ATCC43255); 25 mg/kg PO bid for 3 days", "result": 100, "unit": "%"}, {"measurement": "Survivors at 24 hr", "setting": "C. diff. (ATCC43255); 25 mg/kg PO bid for 3 days", "result": 6}, {"measurement": "Survivors at 48 hr", "setting": "C. diff. (ATCC43255); 25 mg/kg PO bid for 3 days", "result": 6}, {"measurement": "Survivors at 66 hr", "setting": "C. diff. (ATCC43255); 25 mg/kg PO bid for 3 days", "result": 6}, {"measurement": "Survivors at 72 hr", "setting": "C. diff. (ATCC43255); 25 mg/kg PO bid for 3 days", "result": 6}, {"measurement": "Survivors at 96 hr", "setting": "C. diff. (ATCC43255); 25 mg/kg PO bid for 3 days", "result": 6}, {"measurement": "% Survivors at 120 hr", "setting": "C. diff. (ATCC43255); 50 mg/kg PO bid for 3 days", "result": 100, "unit": "%"}, {"measurement": "Survivors at 24 hr", "setting": "C. diff. (ATCC43255); 50 mg/kg PO bid for 3 days", "result": 6}, {"measurement": "Survivors at 48 hr", "setting": "C. diff. (ATCC43255); 50 mg/kg PO bid for 3 days", "result": 6}, {"measurement": "Survivors at 66 hr", "setting": "C. diff. (ATCC43255); 50 mg/kg PO bid for 3 days", "result": 6}, {"measurement": "Survivors at 72 hr", "setting": "C. diff. (ATCC43255); 50 mg/kg PO bid for 3 days", "result": 6}, {"measurement": "Survivors at 96 hr", "setting": "C. diff. (ATCC43255); 50 mg/kg PO bid for 3 days", "result": 6}, {"measurement": "protection from lethal infection with C. diff. (in words)", "setting": "C. diff. (ATCC43255); oral suspension in 1% carboxymethylcellulose, twice daily", "result": "protected hamsters from lethal infection"}]}
